From patent US20240262844A1, “PYRIDINIUM SALTS AND METHODS OF USE” (UNIVERSITY OF WYOMING, priority 2023, published 2024)
Counter-ions that a name gives are not always drawn.

Experiments:
NPM1 = target: T1, NPM1 (Homo sapiens, UniProt P06748); experiment: In-situ labeling and enrichment of NPM1 in HEK293T cells (MS-MS, Western); format: cell-based
T1 construct: endogenous in cells; host or cells: HEK293T
Description: Cell culture and in-situ tryptophan probe treatment: Cell lines were cultured at 37° C. with 5% C02. Human embryonic kidney 293 cells expressing a mutant version of the SV40 large T antigen (HEKT293T cells) were grown in Dulbecco's Modified Eagle Medium (DMEM, Gibco) supplemented with 10% fetal bovine serum and 1% penicillin/streptomycin. For in-situ labeling, cells were grown to 90% confluence, washed with Dulbecco's phosphate buffered saline (DPBS), treated with 100x stocks of the tryptophan probes (the pyridinium salts) in OptiMem (GibCo) to generate final concentrations (0 μM, 1 μM, 10 μM, and 100 μM) in 1% dimethylsulfoxide (DMSO). Cells were incubated for 1 hour at 37° C. with 5% C02 followed by photo-activation at the respective wavelengths for 20 minutes at 4° C. Cells were harvested with a cell scraper, washed 3× with DPBS, and pellets were stored at −80° C. until further use. […]
In-situ tryptophan probe sample processing for peptide-level characterization: Cell pellets were lysed via sonication (QSonica) at 50% amplitude, 2 seconds ON, 3 seconds OFF, 30 seconds in 40 mM HEPES pH 7.5 (4-(2-hydroxyethyl)-1-piperazineethanesulfonic acid), 1.5 mM magnesium chloride (MgCl2), 1% Sodium dodecyl sulfate (SDS), 0.8% NP-40 (also known as nonyl phenoxypolyethoxylethanol), and 1x protease inhibitors (Thermo). Protein concentration was determined by BCA (Pierce). […]
In-situ tryptophan probe sample processing for protein-level identification: Cell pellets were lysed via sonication (QSonica) at 50% amplitude, 2 seconds ON, 3 seconds OFF, 30 seconds in 50 mM HEPES pH 7.5, 1.5 mM MgCl2, 1% SDS, 0.8% NP-40, and 1x protease inhibitors (Thermo). Protein concentration was determined by BCA (Pierce). […]

[1] = target: T2, recombinant NPM1 C-terminal domain (residues 240-294) (Homo sapiens, UniProt P06748); experiment: In vitro NPM1 C-terminal domain labeling (Western); format: biochemical
T2 construct: made in house; host or cells: NiCo21(DE3) E. coli
T2 sequence (P06748 240-294): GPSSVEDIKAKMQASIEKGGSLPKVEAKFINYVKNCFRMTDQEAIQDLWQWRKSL
Source text: NPM1 Construct design: NPM1 residues 240-294 corresponding to the C-terminal DNA binding domain were fused to a combined 6×His-maltose binding protein (MBP) solubility tag on the N-terminus. An HRV 3C protease cleavage sequence (LEVLFQ/GP) was placed between the tags and NPM1 sequence and upon cleavage the remaining GP sequence corresponds to the NPM1 240-241 residues resulting in a natural peptide sequence without additional residues.
In vitro NPM1 C-terminal domain labeling and characterization: Labeling of recombinant NPM1 with the pyridinium salt 2b was performed with the following conditions: 10 μM NPM1 was treated with DMSO or 100 μM pyridinium salt 2b (2% DMSO) in 50 mM HEPES pH 7.5, 150 mM NaCl, 1.5 mM MgCl2, and 100 μM glutathione (GSH). Samples were irradiated at 450 nm (Kessil PR160L-440) at 100% intensity for 15 minutes at room temperature or 50° C. The reaction mixture was quenched with the addition of 4X LDS buffer (Invitrogen) containing 10 mM DTT (Pierce) and boiled for 10 minutes before resolving proteins on 4-12% Bis-Tris NuPAGE gels (Invitrogen), transferred onto a Trans-Blot Turbo Mini 0.2 μm nitrocellulose membrane (BioRad), blocked with 5% BSA in tris-buffered saline with Tween-20 (TBST), and incubated with HRP-linked anti-biotin (Cell Signaling Technology, #7075).

[2] = chemoproteomic profiling, HEK293T cells

T1 sequence (P06748 whole entry): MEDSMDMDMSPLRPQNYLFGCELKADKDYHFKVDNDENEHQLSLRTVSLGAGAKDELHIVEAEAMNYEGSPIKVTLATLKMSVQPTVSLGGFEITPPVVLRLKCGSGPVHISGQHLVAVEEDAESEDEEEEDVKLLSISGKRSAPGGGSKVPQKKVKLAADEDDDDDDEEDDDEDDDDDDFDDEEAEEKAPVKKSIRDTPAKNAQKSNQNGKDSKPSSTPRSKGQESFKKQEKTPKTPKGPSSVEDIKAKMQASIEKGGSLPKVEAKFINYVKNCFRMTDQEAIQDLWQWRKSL

SMILES	in-situ labeled tryptophan residue (NPM1; [2])	labeling of Trp288 (NPM1; [2])	NPM1 in enriched protein mixture (Western analysis) (NPM1; cultures irradiated with blue light in the presence of probe, protein-level enrichment)	labeling of the construct (Western analysis) ([1]; 10 μM NPM1, 100 μM probe, 100 μM glutathione, about 440 nm, about 15 minutes)	temperature dependence of labeling ([1]; labeling at about 50° C. versus room temperature)
COc1ccc2cc(-c3cc(C)[n+](N(C)C(=O)OCCCCCCN=[N+]=[N-])c(C)c3)ccc2c1 [Pyridinium salt 2d, 1-((((6-azidohexyl)oxy)carbonyl)(methyl)amino)-4-(6-methoxynaphthalen-2-yl)-2,6-dimethylpyridin-1-ium tetrafluoroborate]	Trp290	not labeled	found to contain both proteins		
COc1ccc2cc(-c3cc(C)[n+](N(C)C(=O)OCCCCC[C@H]4SC[C@H]5NC(=O)N[C@H]54)c(C)c3)ccc2c1 (stereo in doubt) [Pyridinium salt 2b, 4-(6-methoxynaphthalen-2-yl)-2,6-dimethyl-1-(methyl(((5-((3aR,4R,6aS)-2-oxohexahydro-1H-thieno[3,4-d]imidazol-4-yl)pentyl)oxy)carbonyl)amino)pyridin-1-ium tetrafluoroborate]				photo-dependent labeling	higher level of labeling
